Laboratory results from patent US20250280826A1, “PLANT GROWTH PROMOTER” (KAO CORPORATION, priority 2022, published 2025).

Format: physicochemical
Conditions: in 100 μL of isobutyl alcohol
Procedure: The amount of BHT dissolved in 100 μL of isobutyl alcohol was changed. […] For other solvents, solubility was similarly confirmed at a ratio of BHT:solvent=1:4. […] The reagents used were those manufactured by FUJIFILM Wako Pure Chemical Corporation.

## dibutylhydroxytoluene [BHT]
  amount of BHT uniformly dissolved: up to 25 mg
